Data as given in BindingDB's records for doi:10.1021/acs.jmedchem.1c00926 (Biogen, 2022).

Experiment: Inhibition of CD69 in human whole blood preincubated for 30 mins followed by anti-human IgD stimulation and measured after 18 to 22 hrs by flow cytometry

Row | SMILES | IC50
1 | Cc1c(NC(=O)c2cc3c(s2)CCCC3)cccc1-c1cn(C)c(=O)c(Nc2ccc(C3CN(C)CC(=O)N3C)cc2)n1 (centres undefined) | 1.2 µM
2 | CC(C)OC1CN(C(=O)N[C@@H]2CCCCc3cc(-c4ccnc(Nc5cnn(C)c5)n4)ccc32)C1 | 0.4 µM
3 | Cn1cc(Nc2nccc(-c3ccc4c(c3)CCCCC4NC(=O)N3CC[C@@H](C(C)(C)C)C3)n2)cn1 (some centres undefined) | 0.04 µM
4 | Cn1cc(Nc2nccc(-c3ccc4c(c3)CCCCC4NC(=O)c3cnc(C(C)(C)C)nc3)n2)cn1 (centres undefined) | > 10 µM
5 | Cn1cc(Nc2nccc(-c3ccc4c(c3)CCCC[C@H]4NC(=O)c3nc(C(C)(C)C)no3)n2)cn1 | 0.059 µM
6 | Cn1cc(Nc2nccc(-c3ccc4c(c3)CCCC[C@H]4NC(=O)c3cn(C(C)(C)C)nn3)n2)cn1 | 0.104 µM
7 | Cn1cc(Nc2nccc(-c3ccc4c(c3)CCNC[C@H]4NC(=O)c3cn(C(C)(C)C)nn3)n2)cn1 | 0.4 µM
8 | Cn1cc(Nc2nccc(-c3ccc4c(c3)CNCC[C@H]4NC(=O)c3cn(C(C)(C)C)nn3)n2)cn1 | 1.6 µM
9 | CN1CCc2cc(-c3ccnc(Nc4cnn(C)c4)n3)ccc2[C@H](NC(=O)c2cn(C(C)(C)C)nn2)C1 | 0.7 µM
10 | Cn1cc(Nc2nccc(-c3ccc4c(c3)CCCCC4NC(=O)c3cn(C(C)(C)C)nn3)n2)cn1 (centres undefined) [1-(tert-butyl)-N-(2-(2-((1-methyl-1H-pyrazol-4-yl)amino)pyrimidin-4-yl)-6,7,8,9-tetrahydro-5H-benzo[7]annulen-5-yl)-1H-1,2,3-triazole-4-carboxamide] | 0.86 µM
11 | Cn1cc(Nc2nccc(-c3ccc4c(c3)CCCCC4NC(=O)c3nc(C(C)(C)C)no3)n2)cn1 (centres undefined) [3-(tert-butyl)-N-(2-(2-((1-methyl-1H-pyrazol-4-yl)amino)pyrimidin-4-yl)-6,7,8,9-tetrahydro-5H-benzo[7]annulen-5-yl)-1,2,4-oxadiazole-5-carboxamide ] | 0.22 µM
12 | Cn1cc(Nc2nccc(-c3ccc4c(c3)CCCCC4NC(=O)c3nnc(C(C)(C)C)o3)n2)cn1 (centres undefined) [5-(tert-butyl)-N-(2-(2-((1-methyl-1H-pyrazol-4-yl)amino)pyrimidin-4-yl)-6,7,8,9-tetrahydro-5H-benzo[7]annulen-5-yl)-1,3,4-oxadiazole-2-carboxamide] | 0.39 µM
13 | COCCN1CC[C@@H](NC(=O)c2cn(C(C)(C)C)nn2)c2ccc(-c3ccnc(Nc4cnn(C)c4)n3)cc2C1 [(R)-1-(tert-butyl)-N-(2-(2-methoxyethyl)-8-(2-((1-methyl-1H-pyrazol-4-yl)amino)pyrimidin-4-yl)-2,3,4,5-tetrahydro-1H-benzo[c]azepin-5-yl)-1H-1,2,3-triazole-4-carboxamide ] | 0.8 µM
14 | Cn1cc(Nc2nccc(-c3ccc4c(c3)CCCC[C@H]4NC(=O)c3nnc(C(C)(C)C)o3)n2)cn1 [(R)-5-(tert-butyl)-N-(2-(2-((1-methyl-1H-pyrazol-4-yl)amino)pyrimidin-4-yl)-6,7,8,9-tetrahydro-5H-benzo[7]annulen-5-yl)-1,3,4-oxadiazole-2-carboxamide ] | 0.33 µM
